Measurements: patent US9006226B2, “Dihydropteridinones I” (Boehringer Ingelheim International GmbH, priority 2012, dated 2015)

Test system: Aβ42
Assay: Aβ42 vs. Aβ total production in H4 neuroglioma cells stably expressing human APP695 (Meso Scale Discovery electrochemiluminescence assay)
Assay type: cell-based
Settings: the higher the ratio, the more specific the inhibition of Aβ42
Procedure: Cells were plated out to near confluency. The compounds to be tested were received as 10 mM stocks in 100% DMSO. A dilution series was initially generated in 100% DMSO and then diluted 200-fold in cell culture media such that the tested concentration range was 30 μM to 0.1 nM and the final DMSO concentration was 0.5%. The diluted compounds were incubated with the cells for 22 hours in an incubator at 37° C. and 5% CO2. Aβ42 as well as Aβ total levels were then measured post-incubation from the supernatant of the cells. Aβ42 levels were determined using a specific electrochemiluminescence assay provided by Meso Scale Discovery (Catalog #L21CA-1) according to the manufacturer's protocol. Aβ total levels were likewise determined using a specific electrochemiluminescence assay provided by Meso Scale Discovery (Catalog #L21ZA-1) according to the manufacturer's protocol.
In order to absolutely define the described compounds as modulators of γ-Secretase as opposed to simply inhibitors of γ-Secretase, measurements of not only Aβ42 but also Aβ total are performed.

| Ratio Aβ(total)/Aβ42 (Aβ total IC50/Aβ42 IC50) | Structure (SMILES) |
| --- | --- |
| 90 | CCc1nc(Nc2ccc(-n3cnc(C)c3)c(OC)c2)nc2c1N(C)C(=O)[C@H]1[C@H](c3ccc(F)cc3)CCN21 (racemic) [Example 23] |
| 70 | CCc1nc(Nc2ccc(-n3cnc(C)c3)c(OC)c2)nc2c1NC(=O)[C@@]1(C)[C@@H](OC)CN21 (racemic) [Example 27] |
| 96 | CCc1nc(Nc2ccc(-n3cnc(C)c3)c(OC)c2)nc2c1N(C)C(=O)C1CCCN21 (stereo not shown) [Example 6] |
| 98 | CCc1nc(Nc2ccc(-n3cnc(C)c3)c(OC)c2)nc2c1NC(=O)C1CCCN21 (stereo not shown) [Example 7] |
| >310 | COc1cc(Nc2ncc3c(n2)N2CCCC2C(=O)N3C)ccc1-n1cnc(C)c1 (stereo not shown) [Example 11] |
| 14 | COc1cc(Nc2nc(SC)c3c(n2)N2CCCCC2C(=O)N3C)ccc1-n1cnc(C)c1 (stereo not shown) [Example 13] |
| 67 | CCc1nc(Nc2ccc(-n3cnc(C)c3)c(OC)c2)nc2c1N(C)C(=O)[C@@H]1C[C@@H](OC)CN21 [Example 14] |
| 36 | CCc1nc(Nc2ccc(-n3cnc(C)c3)c(C#N)c2)nc2c1N(C)C(=O)[C@@H]1C[C@@H](OC)CN21 [Example 15] |
| 33 | CCc1nc(Nc2ccc(-n3cnc(C)c3)c(C#N)c2)nc2c1NC(=O)[C@@H]1C[C@@H](OC)CN21 [Example 16] |
| 68 | CCc1nc(Nc2ccc(-n3cnc(C)c3)c(OC)c2)nc2c1NC(=O)[C@@H]1C[C@@H](OC)CN21 [Example 17] |
| 82 | CCc1nc(Nc2ccc(-c3cnc(C)o3)c(OC)c2)nc2c1NC(=O)[C@@H]1C[C@@H](OC)CN21 [Example 19] |
| 73 | CCc1nc(Nc2ccc(-n3cnc(C)c3)c(OC)c2)nc2c1N(C)C(=O)[C@]1(C)C[C@@H](OC)CN21 [Example 25] |
| 29 | CCc1nc(Nc2ccc(-n3cnc(C)c3)c(OC)c2)nc2c1NC(=O)C1COCCN21 (stereo not shown) [Example 28] |
| 76 | CCc1nc(Nc2ccc(-n3cnc(C)c3)c(OC)c2)nc2c1N(C)C(=O)C1COCCN21 (stereo not shown) [Example 29] |
| 66 | COc1cc(Nc2nc(C(C)C)c3c(n2)N2CCCC2C(=O)N3C)ccc1-n1cnc(C)c1 (stereo not shown) [Example 32] |
| 71 | Cc1cn(-c2ccc(Nc3nc(CC(C)C)c4c(n3)N3CCCC3C(=O)N4C)cc2C#N)cn1 (stereo not shown) [Example 35] |
| 86 | CCc1nc(Nc2ccc(-n3cnc(C)c3)c(OC)c2)nc2c1N(C)C(=O)C1CCCCN21 (stereo not shown) [Example 36] |
| 12 | COc1cc(Nc2nc(C(C)C)c3c(n2)N2CCN(C(=O)OC(C)(C)C)CC2C(=O)N3C)ccc1-n1cnc(C)c1 (stereo not shown) [Example 37] |

The next lines start with the compound.

| Structure (SMILES) | Ratio Aβ(total)/Aβ42 (Aβ total IC50/Aβ42 IC50) |
| --- | --- |
| CCc1nc(Nc2ccc(-n3cnc(C)c3)c(OC)c2)nc2c1NC(=O)[C@H]1[C@@H](c3ccc(F)cc3)CCN21 (racemic) [Example 22] | 71 |
| COc1cc(Nc2ncc3c(n2)N2CCCCCC2C(=O)N3C)ccc1-n1cnc(C)c1 (stereo not shown) [Example 2] | 59 |
| CCN1C(=O)C2CCCCCN2c2nc(Nc3ccc(-c4ccnc(C)c4)cc3)ncc21 (stereo not shown) [Example 3] | 17 |
| CCCN1C(=O)C2CCCCCN2c2nc(Nc3ccc(-n4cnc(C)c4)c(OC)c3)ncc21 (stereo not shown) [Example 4] | 44 |
| CCN1C(=O)C2CCCCCN2c2nc(Nc3ccc(-n4ccnc4)c(OC)c3)ncc21 (stereo not shown) [Example 5-2] | 64 |
| CCN1C(=O)C2CCCCCN2c2nc(Nc3cnc(-n4cnc(C)c4)c(OC)c3)ncc21 (stereo not shown) [Example 5-4] | >175 |
| CCN1C(=O)C2CCCCCN2c2nc(Nc3ccc(-c4cnc(C)s4)c(OC)c3)ncc21 (stereo not shown) [Example 5-5] | 13 |
| CCN1C(=O)C2CCCCCN2c2nc(Nc3ccc(-n4cnc(C)c4)cc3)ncc21 (stereo not shown) [Example 5-6] | 43 |
| CCN1C(=O)C2CCCCCN2c2nc(Nc3ccc(-n4cnc(C)c4)cc3OC)ncc21 (stereo not shown) [Example 5-7] | 3 |
| CCCN1C(=O)C2CCCCCN2c2nc(Nc3ccc(-c4ccnc(C)c4)cc3)ncc21 (stereo not shown) [Example 5] | 14 |
| CCc1nc(Nc2ccc(-c3ccnc(C)c3)cc2)nc2c1N(C)C(=O)C1CCCN21 (stereo not shown) [Example 8] | 62 |
| CCc1nc(Nc2ccc(-c3cnc(C)o3)nc2)nc2c1N(C)C(=O)C1CCCN21 (stereo not shown) [Example 9] | >24 |
| COc1cc(Nc2ncc3c(n2)N2CCCC2C(=O)N3C)ccc1-n1cnc(C)n1 (stereo not shown) [Example 12-1] | >10 |
| CN1C(=O)C2CCCN2c2nc(Nc3ccc(-c4cnn(C)c4)nc3)ncc21 (stereo not shown) [Example 12-2] | >5 |
| Cc1cn(-c2ccc(Nc3ncc4c(n3)N3CCCC3C(=O)N4C)cc2F)cn1 (stereo not shown) [Example 12-3] | >27 |
| COc1cc(Nc2ncc3c(n2)N2CCCC2C(=O)N3C)ccc1-n1ncnc1C (stereo not shown) [Example 12-4] | >39 |
| COc1cc(Nc2ncc3c(n2)N2CCCOCC2C(=O)N3)ccc1-n1cnc(C)c1 (stereo not shown) [Example 30] | 96 |
| COc1cc(Nc2ncc3c(n2)N2CCCOC2(C)C(=O)N3C)ccc1-n1cnc(C)c1 (stereo not shown) [Example 31] | 55 |
| CC(C)Cc1nc(Nc2ccc(-c3cnn(C)c3)cc2)nc2c1N(C)C(=O)C1CCCN21 (stereo not shown) [Example 34] | 30 |
